Measured values reported in ChEMBL document CHEMBL1153256, “Unusual stereochemical preferences of decahydroisoquinoline-3-cargoxylic acid competitive NMDA antagonists” (Bioorg Med Chem Lett, 1993).

Experiments:
[1] = species: Mus musculus; test: Minimum effective dose to prevent NMDA-induced lethality in mice; format: functional
[2] = species: Rattus norvegicus; test: Compound was tested for relative potency as NMDA antagonist by determining its ability to inhibit depolarizations induced by 40 uM NMDA in a cortical slice preparation.; format: functional
[3] = target: Glutamate NMDA receptor; test: Inhibition of [3H]-CGS- 19755 binding to rat brain membrane NMDA receptor

Row | Compound | MED [1] [mg/kg] | IC50 [2] [nM] | IC50 [3] [nM]
1 | O=C(O)C1CC2CC(Cc3nnn[nH]3)CCC2CN1 (racemic; form 1) | 40 | 4800 | 3410
2 | O=C(O)C1CC2CC(CP(=O)(O)O)CCC2CN1 (racemic; form 1) | 1.25 | 150 | 55
3 | O=C(O)C1CC2CC(Cc3nnn[nH]3)CCC2CN1 (racemic; form 2) | 2.5 | 1390 | 940
4 | O=C(O)C1CC2CC(CP(=O)(O)O)CCC2CN1 (racemic; form 2) | 2.5 | 1700 | 820
5 | O=C(O)C1CC2CC(Cc3nnn[nH]3)CCC2CN1 (single isomer, unassigned; (+)) | >160 | > 100000 | 22600
6 | O=C(O)C1CC2CC(CP(=O)(O)O)CCC2CN1 (single isomer, unassigned; (-)) | 0.625 | 220 | 25
7 | O=C(O)C1CC2CC(CP(=O)(O)O)CCC2CN1 (stereo in doubt; (+)-1 R) | 80 | 33000 | 8400
8 | O=C(O)C1CC2CC(CP(=O)(O)O)CCC2CN1 (stereo in doubt; (+)-3 S) |  |  | 8700
9 | O=C(O)C1CC2CC(Cc3nnn[nH]3)CCC2CN1 (stereo in doubt; (+)-4 S) |  | 28000 | 5160
10 | O=C(O)C1CC2CC(Cc3nnn[nH]3)CCC2CN1 (stereo in doubt; (-)-2 S) | 1.25 | 820 | 420
11 | O=C(O)C1CC2CC(CP(=O)(O)O)CCC2CN1 (stereo in doubt; (-)-3 R) |  |  | 670
12 | O=C(O)C1CC2CC(Cc3nnn[nH]3)CCC2CN1 (stereo in doubt; (-)-4 R) |  | 6200 | 3320
